According to patent EP4671365A1, “KIT FOR INDUCING STEM CELLS TO DIFFERENTIATE INTO NK CELLS, USE OF KIT, AND USE OF COMBINATION OF NK CELLS AND TMZ IN TREATMENT FOR TMZ DRUG-RESISTANT GBM” (Xellsmart Biomedical (Suzhou) Co., Ltd, priority 2023, dated 2024):

How the values were obtained:
[1] = in vivo, cited from earlier work
resistant GBM (T98G) [2] = test: In vitro killing of tumor target cells (CellTiter-Glo); type: cell-based
Experimental: Furthermore, in this example, the in vitro efficacy of iPSC-NK cells in combination with TMZ was explored by monitoring the killing of tumor target cells. • A. The procedures for the culture, digestion, and plating of GBM tumor cells T98G are described in Example 5. • B. TMZ preparation: See Example 5 for the procedures of treating cells. In this example, the cells were pre-treated at 1000 µM for 48 h. • C. iPSC-NK cells were prepared as described in Example 8. • D. Co-incubation for killing. According to the preset effector-to-target ratios (1:8, 1:4, and 1:1), an appropriate volume of iNK cells in an expansion culture was taken (note that the iNK cell viability should be kept at 90% or higher) and counted by AO/PI staining. According to the counting result, the cell suspension was adjusted to a density of 1 × 10^5 cells/mL. The tumor cells were seeded at 1 × 10^4 cells/well. After the adherent culture of T98G cells in the 96-well plates (6 h after re-digestion and inoculation), the NK cell suspension was added to the T98G plates according to the grouping design. After 18 h of co-incubation, the viability of the T98G cells was detected using the CellTiter-Glo® luminescent cell viability assay kit. Three replicates were set in each group. • E. Cell viability assay. At preset time points (8, 16, 24, and 48 h), the cells were collected. The CellTiter-Glo® luminescent cell viability assay kit was used according to the manufacturer's instructions. An appropriate volume of the CellTiter-Glo® solution was mixed with a DMEM medium in a ratio of 1:1 to prepare a working solution. The CellTiter-Glo® working solution was added to the 96-well plate at 50 µL/well. The plate was incubated at room temperature for 10 min in the dark and then detected on a microplate reader for the chemiluminescence. • F. Killing rate calculation. Killing rate (%) = (fluorescence intensity in the untreated group - fluorescence intensity in the treatment group)/fluorescence intensity in the untreated group × 100%. * denotes p < 0.05 in a T test, and ** denotes p < 0.01. […]

sensitive GBM (U87) = test: Cell cycle assay (PI staining, flow cytometry); type: cell-based; conditions: TMZ 300 µM
Experimental: (§1) TMZ acts on DNA after being absorbed into tumor cells in the human body, causing alkylation damage to the DNAs, thereby forming DNA double-strand breaks or cross-linking, arresting the cell cycle, and triggering the proliferation arrest or apoptosis of the tumor cells. To explore the mechanism by which the resistant GBM cell strains resist TMZ, a cell cycle assay was performed to determine the effect of TMZ on the cell cycle of different GBM cell strains. A. Cell culture and treatment: See Example 5 for the procedures of U87 and T98G cell culture and TMZ treatment. The concentration of TMZ used in this example was 300 µM. B. Preparation of cell samples: The Beyotime cell cycle kit (Beyotime, C1052) was used according to the manufacturer's instructions. 1 × 10^6 cells were added to a centrifuge tube for later use and centrifuged at 1000 g for 3-5 min to precipitate the cells. The supernatant was discarded by pipetting, and 1 mL of pre-cooled PBS was added to resuspend the cells. The mixture was transferred to a 1.5 mL centrifuge tube. The cells were pelleted by centrifugation, and the supernatant was discarded by pipetting. C. Cell fixation: The cells were added to 1 mL of pre-cooled 70% ethanol, mixed well by pipetting, and fixed at 4 °C for 30 min. The mixture was centrifuged at about 1000 g for 3-5 min to pellet the cells. The supernatant was discarded by pipetting, and about 1 mL of PBS pre-cooled in an ice bath was added to resuspend the cells. The cells were pelleted again by centrifugation, and the supernatant was discarded by pipetting. D. Preparation of and staining with propidium iodide (PI) staining solution: Referring to Table 2, an appropriate amount of PI staining solution was prepared according to the number of samples to be tested. Table 2. Preparation of PI staining solutions
(§2) Staining: 0.5 mL of the PI staining solution was added to each tube of cell samples, and the cell pellet was slowly and fully resuspended and incubated in the dark at 37 °C for 30 min. The mixture was preserved at 4 °C or in an ice bath in the dark. The flow cytometry was completed within 24 h after the staining was completed.
(§3) E. Flow cytometry detection and analysis: The red fluorescence was detected at an excitation wavelength of 488 nm and the light scattering was also detected on a flow cytometer (Agilent, Novocyte3000). The cellular DNA content assay and light scattering analysis were performed using an appropriate analysis software (Agilent, Novoexpress).

resistant GBM (T98G) [3] = test: Cell cycle assay (PI staining, flow cytometry); type: cell-based; conditions: TMZ 300 µM, compared to control DMSO
Experimental: as §1, §2, §3

T98G = test: Flow cytometry of immune activation ligands after TMZ treatment; type: cell-based; conditions: TMZ 1000 µM, 48 h; CD112, CD155, B7-H6, CD54, CD70, CD48, CD1d, PD-L1
Text: Immune surveillance is an important mechanism for identifying and removing tumor cells, and the dynamic expression of proteins related to immune activation on the membrane of tumor cells is also the key to their recognition by immune cells or recognition escape. In this example, the changes in expression of immune-related proteins when GBM is resisting the effect of TMZ were further studied, so as to provide a theoretical basis for the immunotherapy. • A. GBM cell culture and treatment: See Example 5 for the procedures of T98G cell culture. The cells were cultured until an 80%-90% confluence and digested with pancreatin at 37 °C for 5 min. DMEM medium of a two-fold volume was added to stop the digestion. The cell suspension was transferred to a centrifuge tube and centrifuged at 300 g for 5 min. The cell pellet was resuspended in DMEM medium, and the cells were counted by AO/PI staining. According to the counting result, the density of the cell suspension was adjusted to 1 × 10^5 cells/mL. After that, an appropriate volume of TMZ stock solution (100 mM) was added to the cell suspension to reach a final TMZ concentration of 1000 µM in the cell suspension. […]
The cells treated with TMZ for 48 h were digested with a pancreatin digestion solution and centrifuged, and the supernatant was discarded. […] The cells were washed with PBS, centrifuged, resuspended, and detected on a flow cytometer. […]

TMZ-resistant GBM (T98G) = test: CellTiter-Glo cell viability assay, sensitivity response to TMZ; type: cell-based
Experimental: (§4) U87 and T98G cells were cultured until an 80%-90% confluence and digested with pancreatin (Beyotime, C0201-100mL) at 37 °C for 5 min. DMEM medium (Gibco, 11965084) of a two-fold volume was added to stop the digestion. The cell suspension was transferred to a centrifuge tube and centrifuged at 300 g for 5 min. The cell pellet was resuspended in DMEM medium, and the cells were counted by AO (acridine orange)/PI (propidium iodide) staining. According to the counting result, the density of the cell suspension was adjusted to 1 × 10^5 cells/mL. The cell suspension was added to the 96-well plate at 100 µL/well as required for grouping, and then the 96-well plate was incubated in an incubator at 37 °C overnight.
(§5) TMZ powder (Sigma, T2577-25MG) was dissolved in an appropriate volume of DMSO to prepare a TMZ stock solution at a concentration of 100 mM. The TMZ solution with the highest concentration (5000 µM) was prepared as follows: 225 µL of the TMZ stock solution was diluted with 4.5 mL of DMEM medium, and the resultant solution was then diluted to give TMZ working solutions at concentrations of 1000 µM, 500 µM, 200 µM, 100 µM, and 10 µM.
(§6) After the U87 and T98G cells were cultured overnight, and the adherent growth and the logarithmic growth phase were observed, the TMZ working solutions at the corresponding working concentration were added according to the grouping design at 100 µL/well, and the cells were incubated in the incubator. […]
(§7) The CellTiter-Glo® luminescent cell viability assay kit (Promega, G7572) was used, and the procedures in the manufacturer's instructions were performed. An appropriate volume of the CellTiter-Glo® solution was mixed with a DMEM medium in a ratio of 1:1 to prepare a working solution. The CellTiter-Glo® working solution was added to the 96-well plate at 50 µL/well. The plate was incubated at room temperature for 10 min in the dark and then detected on a microplate reader (TECAN, Infinite®200 PRO) for the chemiluminescence.
(§8) The assay and detection schemes were the same as those in Example 5.1, and a concentration of 300 µM in the sensitive interval in Example 5.1 was selected as the TMZ concentration.

TMZ-sensitive GBM (U87) = test: as above; type: cell-based
Experimental: as §4, §5, §6, §7, §8

[4] = TMZ 300 µM, 48 h, compared to control DMSO

Cn1nnc2c(C(N)=O)ncn2c1=O [TMZ, 3,4-dihydro-3-methyl-4-oxoimidazo[5,1-d]-asymmetric-tetrazol-8-amide]
oral bioavailability ([1]; po): ~100%
concentration detected in the cerebrospinal fluid, of the TMZ plasma concentration [1]: about 20%
killing effect against target cells (resistant GBM (T98G) [2]; 8 h, 16 h, 24 h and 48 h, effector-to-target ratios 1:8, 1:4, 1:1, TMZ 1000 µM pretreatment 48 h): weak killing effect
killing effects / in vitro killing activity (resistant GBM (T98G) [2]; E:T = 1:1, co-incubation 8 h): substantially no killing effects
killing effect (resistant GBM (T98G) [2]; at 48 h, TMZ 1000 µM): about 10%
DNA content in the G2/M phase (sensitive GBM (U87); 24 h): 16.86%
DNA content in the G2/M phase (sensitive GBM (U87); 48 h): 23.22%
DNA content in the G2/M phase (sensitive GBM (U87); 72 h): 40.01%
DNA in the G2/M phase (resistant GBM (T98G) [3]): did not change significantly
expression of immune activation ligands (T98G): up-regulated expression to different extents
viability at 200 µM (TMZ-resistant GBM (T98G); Homo sapiens, T98G, TMZ 200 µM, 72 h, read-out: viable T98G cell count): ≥ 80%
viability at 300 µM (TMZ-resistant GBM (T98G); Homo sapiens, T98G, TMZ 300 µM, at 72 h, read-out: viable cell count (T98G)): > 80%
viability at 500 µM (TMZ-resistant GBM (T98G); Homo sapiens, T98G, TMZ 500 µM, 72 h, read-out: viable T98G cell count): 70%
growth of T98G cells (microscopic results) (TMZ-resistant GBM (T98G); [4]): not greatly different
viability at 200 µM (TMZ-sensitive GBM (U87); Homo sapiens, U-87 MG, TMZ 200 µM, 72 h, read-out: viable U87 cell count): ~50%
viability at 300 µM (TMZ-sensitive GBM (U87); Homo sapiens, U-87 MG, TMZ 300 µM, at 72 h, read-out: viable U87 cell count): < 40%
viability at 500 µM (TMZ-sensitive GBM (U87); Homo sapiens, U-87 MG, TMZ 500 µM, 72 h, read-out: viable U87 cell count): ~40%
growth of U87 cells (microscopic results) (TMZ-sensitive GBM (U87); [4]): significantly inhibited
